# Tested on: Rats
# Test: Biological assay of calcitonin analogs in vivo: reduction of serum calcium concentration vs synthetic salmon calcitonin standard, 2×2 parallel line assay
# Details: standard used in the assay; independently determined
# Description: Biological Assay Of Calcitonin Analogs In Vivo
# The biological potency of des-4-leucine-salmon calcitonin was determined by comparing the reduction of serum calcium concentration which followed administration by graded doses of des-Leu^4 -SCT and synthetic salmon calcitonin standard. Rats were divided into four groups of seven animals, and each group was assigned at random to a dose of standard or test solution. Low and high doses were chosen from the linear portion of the dose-response curve. For the salmon calcitonin standard, the values were 0.7 and 2.1 ng. peptide/100 g. body weight (BW). This dose approximates 3 and […]/100 g. BW. Peptides were given by subcutaneous injection (0.2 ml/100 g. BW) and blood was withdrawn 1 hour later for serum calcium determination. Sera are processed and analyzed within two hours of collection. […]. Results were analyzed by a 2×2 parallel line assay [Gaddum, J. H., J. Pharm. Pharmacol., 6, 345 (1953)]. The standard salmon calcitonin used was independently determined to contain greater than 4,000 IU/mg. des-Leu^4 -SCT assayed at 5400 IU/mg.
structure (smiles),measurement,value
"CC(C)C[C@H](NC(=O)[C@H](CCCCN)NC(=O)CNC(=O)[C@H](CC(C)C)NC(=O)[C@@H](NC(=O)[C@@H]1CSSC[C@H](N)C(=O)N[C@@H](CO)C(=O)N[C@@H](CC(N)=O)C(=O)N[C@@H](CC(C)C)C(=O)N[C@@H](CO)C(=O)N[C@@H]([C@@H](C)O)C(=O)N1)C(C)C)C(=O)N[C@@H](CO)C(=O)N[C@@H](CCC(N)=O)C(=O)N[C@@H](CCC(=O)O)C(=O)N[C@@H](CC(C)C)C(=O)N[C@@H](Cc1c[nH]cn1)C(=O)N[C@@H](CCCCN)C(=O)N[C@@H](CC(C)C)C(=O)N[C@@H](CCC(N)=O)C(=O)N[C@H](C(=O)N[C@@H](Cc1ccc(O)cc1)C(=O)N1CCC[C@H]1C(=O)N[C@@H](CCCNC(=N)N)C(=O)N[C@H](C(=O)N[C@@H](CC(N)=O)C(=O)N[C@H](C(=O)NCC(=O)N[C@@H](CO)C(=O)NCC(=O)N[C@H](C(=O)N1CCC[C@H]1C(N)=O)[C@@H](C)O)[C@@H](C)O)[C@@H](C)O)[C@@H](C)O [standard salmon calcitonin, Salmon calcitonin]",potency content of the standard salmon calcitonin,"greater than 4,000 IU/mg"
